Values joined by “and” are separate entries in the source; they are usually repeats but may differ in a detail not shown here. Equal values may be shown once. Marks after values point to notes of the source that are not given here.
How the values were obtained:
[1] = system: Salmonella typhimurium TA1537; assay: Ames test (reverse mutation test), TA1537; conditions: for Number of revertant colonies: TA1537; for Number of revertant colonies TA1537: S9 Mix +, mean number of each plate
Protocol: (§1) Metabolites 1, 3, and 5 and Metabolites C to H were each tested herein. The purpose of this test is to evaluate the potential of each metabolite to induce reverse mutations in the standard strains of Salmonella typhimurium (TA98, TA1537, TA100, and TA1535) and Escherichia coli (WP2uvrA), in either the presence or absence of a rat liver metabolic activation system (S9 mix).
(§2) The solvent used herein was dimethyl sulfoxide (DMSO, 100 μL/plate).
(§3) The test was performed by the pre-incubation method with or without S9 mix. When the test was performed without S9 mix, sodium phosphate buffer solution (pH 7.4) was added.
(§4) 0.5 mL of S9 mix or 0.5 mL of 0.1 mol/L sodium phosphate buffer solution (pH 7.4), and 0.1 mL of the bacterial culture solution were added to a test tube containing 0.1 mL of the negative control formulation (DMSO alone), the metabolite, or the positive control formulation. The mixtures were pre-incubated at 37° C. for 20 minutes while shaking. After the pre-incubation period, 2 mL of top agar were added and the mixtures were vortex-mixed and seeded onto plates. Two plates per treatment were used. Each plate was incubated at 37±1° C. for 48 hours or more and the revertant colonies were counted. The mean number of revertant colonies for each treatment plate was then calculated. […] Evaluation was based on mean values with no statistical comparisons being used.

[2] = system: Salmonella typhimurium TA1535; assay: Ames test (reverse mutation test), TA1535
Protocol: as §1, §2, §3, §4

[3] = system: Salmonella typhimurium TA98; assay: Ames test (reverse mutation test), TA98; conditions: for Number of revertant colonies: TA98; for Number of revertant colonies TA98: S9 Mix +, mean number of each plate
Protocol: as §1, §2, §3, §4

[4] = system: Escherichia coli WP2uvrA; assay: Ames test (reverse mutation test), WP2uvrA; type: cell-based; conditions: for Number of revertant colonies: WP2uvrA; for Number of revertant colonies WP2uvrA: S9 Mix +, mean number of each plate
[5] = system: Salmonella typhimurium TA100; assay: Ames test (reverse mutation test), TA100; conditions: for Number of revertant colonies: TA100; for Number of revertant colonies TA100: S9 Mix +, mean number of each plate
Protocol: as §1, §2, §3, §4

Nc1ccc2cc3ccccc3cc2c1 [Example 2AA, 2-Aminoanthracene, reference compound]
Number of revertant colonies ([1]; S9 mix +, 2 μg/plate (positive control)): 135
Number of revertant colonies ([2]; S9 mix +, 2.0 μg/plate (positive control)): 223 and 146 and 250
Number of revertant colonies ([3]; S9 mix +, 0.5 μg/plate (positive control)): 289

Cl.Nc1c2ccccc2nc2ccccc12.O [Example 9AA, 9-Aminoacridine hydrochloride monohydrate, reference compound]
Number of revertant colonies ([1]; S9 mix −, 80 μg/plate (positive control)): 372

CC(C)(C)Oc1cc(F)cc(-c2cc(N)nn2C(F)(F)F)c1 [Metabolite 1]
Number of revertant colonies ([1]; S9 mix +, 185 μg/plate): 2*
Number of revertant colonies ([1]; S9 mix +, 556 μg/plate): 0*
Number of revertant colonies ([1]; S9 mix +, 1667 μg/plate): 0*
Number of revertant colonies ([1]; S9 mix +, 5000 μg/plate): 0*
Number of revertant colonies ([1]; S9 mix −, 185 μg/plate): 0*
Number of revertant colonies ([1]; S9 mix −, 556 μg/plate): 0*
Number of revertant colonies ([1]; S9 mix −, 1667 μg/plate): 0*
Number of revertant colonies ([1]; S9 mix −, 5000 μg/plate): 0*
Number of revertant colonies ([2]; S9 mix +, 185 μg/plate): 5*
Number of revertant colonies ([2]; S9 mix +, 556 μg/plate): 4*
Number of revertant colonies ([2]; S9 mix +, 1667 μg/plate): 4*
Number of revertant colonies ([2]; S9 mix +, 5000 μg/plate): 2*
Number of revertant colonies ([2]; S9 mix −, 185 μg/plate): 0*
Number of revertant colonies ([2]; S9 mix −, 556 μg/plate): 0*
Number of revertant colonies ([2]; S9 mix −, 1667 μg/plate): 0*
Number of revertant colonies ([2]; S9 mix −, 5000 μg/plate): 0*
Number of revertant colonies ([4]; S9 mix +, 185 μg/plate): 16*
Number of revertant colonies ([4]; S9 mix +, 556 μg/plate): 18*
Number of revertant colonies ([4]; S9 mix +, 1667 μg/plate): 9*
Number of revertant colonies ([4]; S9 mix +, 5000 μg/plate): 0*
Number of revertant colonies ([4]; S9 mix −, 185 μg/plate): 15*
Number of revertant colonies ([4]; S9 mix −, 556 μg/plate): 8*
Number of revertant colonies ([4]; S9 mix −, 1667 μg/plate): 5*
Number of revertant colonies ([4]; S9 mix −, 5000 μg/plate): 0*
Number of revertant colonies ([3]; S9 mix +, 185 μg/plate): 16*
Number of revertant colonies ([3]; S9 mix +, 556 μg/plate): 15*
Number of revertant colonies ([3]; S9 mix +, 1667 μg/plate): 13*
Number of revertant colonies ([3]; S9 mix +, 5000 μg/plate): 13*
Number of revertant colonies ([3]; S9 mix −, 185 μg/plate): 9*
Number of revertant colonies ([3]; S9 mix −, 556 μg/plate): 0*
Number of revertant colonies ([3]; S9 mix −, 1667 μg/plate): 0*
Number of revertant colonies ([3]; S9 mix −, 5000 μg/plate): 0*
Number of revertant colonies ([5]; S9 mix +, 185 μg/plate): 78*
Number of revertant colonies ([5]; S9 mix +, 556 μg/plate): 59*
Number of revertant colonies ([5]; S9 mix +, 1667 μg/plate): 50*
Number of revertant colonies ([5]; S9 mix +, 5000 μg/plate): 52*
Number of revertant colonies ([5]; S9 mix −, 185 μg/plate): 38*
Number of revertant colonies ([5]; S9 mix −, 556 μg/plate): 0*
Number of revertant colonies ([5]; S9 mix −, 1667 μg/plate): 0*
Number of revertant colonies ([5]; S9 mix −, 5000 μg/plate): 0*

Nc1cc(-c2cc(F)cc(OC(F)(F)F)c2)n(-c2cncc(F)c2)n1 [Metabolite 3]
Number of revertant colonies ([1]; S9 mix +, 6.9 μg/plate): 12
Number of revertant colonies ([1]; S9 mix +, 21 μg/plate): 13
Number of revertant colonies ([1]; S9 mix +, 62 μg/plate): 12
Number of revertant colonies ([1]; S9 mix +, 185 μg/plate): 12
Number of revertant colonies ([1]; S9 mix +, 556 μg/plate): 8*
Number of revertant colonies ([1]; S9 mix +, 1667 μg/plate): 0*†
Number of revertant colonies ([1]; S9 mix +, 5000 μg/plate): 1*†
Number of revertant colonies ([1]; S9 mix −, 6.9 μg/plate): 9
Number of revertant colonies ([1]; S9 mix −, 21 μg/plate): 8
Number of revertant colonies ([1]; S9 mix −, 62 μg/plate): 8
Number of revertant colonies ([1]; S9 mix −, 185 μg/plate): 8
Number of revertant colonies ([1]; S9 mix −, 556 μg/plate): 3*
Number of revertant colonies ([1]; S9 mix −, 1667 μg/plate): 3*†
Number of revertant colonies ([1]; S9 mix −, 5000 μg/plate): 2*†
Number of revertant colonies ([2]; S9 mix +, 6.9 μg/plate): 8
Number of revertant colonies ([2]; S9 mix +, 21 μg/plate): 9
Number of revertant colonies ([2]; S9 mix +, 62 μg/plate): 11
Number of revertant colonies ([2]; S9 mix +, 185 μg/plate): 9
Number of revertant colonies ([2]; S9 mix +, 556 μg/plate): 4*
Number of revertant colonies ([2]; S9 mix +, 1667 μg/plate): 3*†
Number of revertant colonies ([2]; S9 mix +, 5000 μg/plate): 1*†
Number of revertant colonies ([2]; S9 mix −, 6.9 μg/plate): 9
Number of revertant colonies ([2]; S9 mix −, 21 μg/plate): 11
Number of revertant colonies ([2]; S9 mix −, 62 μg/plate): 10
Number of revertant colonies ([2]; S9 mix −, 185 μg/plate): 8
Number of revertant colonies ([2]; S9 mix −, 556 μg/plate): 8*
Number of revertant colonies ([2]; S9 mix −, 1667 μg/plate): 0*†
Number of revertant colonies ([2]; S9 mix −, 5000 μg/plate): 0*†
Number of revertant colonies ([4]; S9 mix +, 6.9 μg/plate): 19
Number of revertant colonies ([4]; S9 mix +, 21 μg/plate): 19
Number of revertant colonies ([4]; S9 mix +, 62 μg/plate): 19
Number of revertant colonies ([4]; S9 mix +, 185 μg/plate): 19
Number of revertant colonies ([4]; S9 mix +, 556 μg/plate): 17*
Number of revertant colonies ([4]; S9 mix +, 1667 μg/plate): 14*†
Number of revertant colonies ([4]; S9 mix +, 5000 μg/plate): 9*†
Number of revertant colonies ([4]; S9 mix −, 6.9 μg/plate): 21
Number of revertant colonies ([4]; S9 mix −, 21 μg/plate): 16
Number of revertant colonies ([4]; S9 mix −, 62 μg/plate): 23
Number of revertant colonies ([4]; S9 mix −, 185 μg/plate): 20
Number of revertant colonies ([4]; S9 mix −, 556 μg/plate): 16*
Number of revertant colonies ([4]; S9 mix −, 1667 μg/plate): 13*†
Number of revertant colonies ([4]; S9 mix −, 5000 μg/plate): 8*†
Number of revertant colonies ([3]; S9 mix +, 6.9 μg/plate): 35
Number of revertant colonies ([3]; S9 mix +, 21 μg/plate): 37
Number of revertant colonies ([3]; S9 mix +, 62 μg/plate): 35
Number of revertant colonies ([3]; S9 mix +, 185 μg/plate): 36
Number of revertant colonies ([3]; S9 mix +, 556 μg/plate): 22*
Number of revertant colonies ([3]; S9 mix +, 1667 μg/plate): 20*†
Number of revertant colonies ([3]; S9 mix +, 5000 μg/plate): 16*†
Number of revertant colonies ([3]; S9 mix −, 6.9 μg/plate): 30
Number of revertant colonies ([3]; S9 mix −, 21 μg/plate): 30
Number of revertant colonies ([3]; S9 mix −, 62 μg/plate): 28
Number of revertant colonies ([3]; S9 mix −, 185 μg/plate): 28
Number of revertant colonies ([3]; S9 mix −, 556 μg/plate): 12*
Number of revertant colonies ([3]; S9 mix −, 1667 μg/plate): 9*†
Number of revertant colonies ([3]; S9 mix −, 5000 μg/plate): 7*†
Number of revertant colonies ([5]; S9 mix +, 6.9 μg/plate): 109
Number of revertant colonies ([5]; S9 mix +, 21 μg/plate): 119
Number of revertant colonies ([5]; S9 mix +, 62 μg/plate): 118
Number of revertant colonies ([5]; S9 mix +, 185 μg/plate): 125
Number of revertant colonies ([5]; S9 mix +, 556 μg/plate): 115*†
Number of revertant colonies ([5]; S9 mix +, 1667 μg/plate): 97*†
Number of revertant colonies ([5]; S9 mix +, 5000 μg/plate): 92*†
Number of revertant colonies ([5]; S9 mix −, 6.9 μg/plate): 89
Number of revertant colonies ([5]; S9 mix −, 21 μg/plate): 90
Number of revertant colonies ([5]; S9 mix −, 62 μg/plate): 87
Number of revertant colonies ([5]; S9 mix −, 185 μg/plate): 86
Number of revertant colonies ([5]; S9 mix −, 556 μg/plate): 6*
Number of revertant colonies ([5]; S9 mix −, 1667 μg/plate): 5*†
Number of revertant colonies ([5]; S9 mix −, 5000 μg/plate): 5*†

Nc1cc(-c2cc(F)cc(OC(F)(F)F)c2)n(-c2cncc(C(F)(F)F)c2)n1 [Metabolite 5]
Number of revertant colonies ([2]; S9 mix +, 185 μg/plate): 9
Number of revertant colonies ([2]; S9 mix −, 6.9 μg/plate): 9
Number of revertant colonies ([2]; S9 mix −, 556 μg/plate): 6

CC(C)(OCc1cc(F)cc(-c2cc(N)nn2-c2ccc(F)cc2)c1)C(F)(F)F [Metabolite D, reference compound]
Number of revertant colonies TA1537 ([1]; dose 2.3 μg/plate): 14
Number of revertant colonies TA1537 ([1]; dose 6.9 μg/plate): 20
Number of revertant colonies TA1537 ([1]; dose 62 μg/plate): 18
Number of revertant colonies TA1537 ([1]; dose 185 μg/plate): 15
Number of revertant colonies TA1537 ([1]; dose 556 μg/plate): 15
Number of revertant colonies TA1537 ([1]; dose 1667 μg/plate): 19
Number of revertant colonies TA1537 ([1]; dose 5000 μg/plate): 24
Number of revertant colonies WP2uvrA ([4]; dose 2.3 μg/plate): 31
Number of revertant colonies WP2uvrA ([4]; dose 21 μg/plate): 24
Number of revertant colonies WP2uvrA ([4]; dose 185 μg/plate): 23
Number of revertant colonies WP2uvrA ([4]; dose 556 μg/plate): 32
Number of revertant colonies WP2uvrA ([4]; dose 1667 μg/plate): 28
Number of revertant colonies WP2uvrA ([4]; dose 5000 μg/plate): 28
Number of revertant colonies TA98 ([3]; dose 2.3 μg/plate): 39
Number of revertant colonies TA98 ([3]; dose 6.9 μg/plate): 42
Number of revertant colonies TA98 ([3]; dose 21 μg/plate): 52
Number of revertant colonies TA98 ([3]; dose 62 μg/plate): 47
Number of revertant colonies TA98 ([3]; dose 185 μg/plate): 49
Number of revertant colonies TA98 ([3]; dose 556 μg/plate): 51
Number of revertant colonies TA98 ([3]; dose 1667 μg/plate): 57
Number of revertant colonies TA98 ([3]; dose 5000 μg/plate): 88
Number of revertant colonies TA100 ([5]; dose 2.3 μg/plate): 139
Number of revertant colonies TA100 ([5]; dose 6.9 μg/plate): 203
Number of revertant colonies TA100 ([5]; dose 21 μg/plate): 237
Number of revertant colonies TA100 ([5]; dose 62 μg/plate): 185
Number of revertant colonies TA100 ([5]; dose 185 μg/plate): 151
Number of revertant colonies TA100 ([5]; dose 556 μg/plate): 119
Number of revertant colonies TA100 ([5]; dose 1667 μg/plate): 100

From US20230119894A1, “THERAPEUTIC OR PROPHYLACTIC METHOD FOR DIABETES USING COMBINATION MEDICINE” (Japan Tobacco Inc., priority 2019, published 2023)
